Where a name gives a salt, the structure may show the parent alone. Read-outs that look alike come from different tables or passages of the source.

One assay concerns the target T1, HO-1 (rat spleen) (Rattus norvegicus, UniProt P06762).
T1 construct: Spleen microsomes were used as a source of HO-1; from tissue; host or cells: spleen microsomal fraction of adult male Sprague-Dawley rats
T1 sequence (P06762 1-289): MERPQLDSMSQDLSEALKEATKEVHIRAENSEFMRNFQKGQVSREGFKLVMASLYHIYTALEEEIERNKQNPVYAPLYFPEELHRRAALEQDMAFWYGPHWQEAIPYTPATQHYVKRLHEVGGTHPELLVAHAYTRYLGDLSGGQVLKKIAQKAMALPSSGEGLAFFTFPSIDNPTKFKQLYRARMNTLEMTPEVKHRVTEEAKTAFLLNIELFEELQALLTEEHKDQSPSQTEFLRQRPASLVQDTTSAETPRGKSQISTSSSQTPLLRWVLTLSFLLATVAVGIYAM
The experiment in a line: HO enzymatic activity in rat spleen microsomal fraction (CO formed from methemalbumin, gas chromatography). It is filed as biochemical.

In another assay the target is T2, HO-2 (rat brain) (Rattus norvegicus, UniProt P23711).
T2 construct: brain microsomes were used as a source of HO-2; from tissue; host or cells: brain microsomal fraction of adult male Sprague-Dawley rats
T2 sequence (P23711 1-315): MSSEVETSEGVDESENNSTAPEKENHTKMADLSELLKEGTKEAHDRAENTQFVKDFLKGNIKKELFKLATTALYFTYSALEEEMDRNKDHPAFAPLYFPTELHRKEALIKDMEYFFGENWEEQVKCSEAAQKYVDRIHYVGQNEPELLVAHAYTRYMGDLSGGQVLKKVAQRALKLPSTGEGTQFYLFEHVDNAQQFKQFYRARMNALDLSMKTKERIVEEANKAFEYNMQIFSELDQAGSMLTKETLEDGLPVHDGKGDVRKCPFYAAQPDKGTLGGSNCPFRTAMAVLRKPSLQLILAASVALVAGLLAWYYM
The experiment in a line: HO enzymatic activity in rat brain microsomal fraction (CO formed from methemalbumin, gas chromatography). In kind it is biochemical.

Setting [1] is: rat spleen microsomes, average ± standard deviation of replicate experiments, read-out: IC50 HO-1 (rat spleen)/μM.
Setting [2] is: rat brain microsomes, average ± standard deviation of replicate experiments, read-out: IC50 HO-2 (rat brain)/μM.
Where [3] appears, read: rat brain microsomes, average ± standard deviation of replicate experiments.

Consider `OC(CCc1ccccc1)Cn1cnc(-c2ccccc2)c1-c1ccccc1` (racemic) [(±)-1-(4,5-diphenyl-imidazol-1-yl)-4-phenyl-butan-2-ol], for which the IC50 at HO-1 (rat spleen) (setting [1]) and at HO-2 (rat brain) (setting [2]) was > 100 µM throughout.
As to `[N-]=[N+]=NCC(=O)c1ccc(Br)cc1`, the IC50 on HO-1 (rat spleen) (setting [1]) and on HO-2 (rat brain) (setting [2]) was > 100 µM in each case.
Regarding `CC(C)(C)c1ccc(CCC(=O)Cn2ccnc2)cc1` [4-(4-tert-Butyl-phenyl)-1-(1H-imidazol-1-yl)-butan-2-one hydrochloride], the IC50 stood at 0.2 ± 0.03 µM on HO-1 (rat spleen) (setting [1]) and 0.9 ± 0.2 µM on HO-2 (rat brain) (setting [2]).
As to `NCC(=O)c1ccc(Br)cc1`, the IC50 against HO-1 (rat spleen) and on HO-2 (rat brain) was > 100 µM each time.
On to `Cc1ccc(S(=O)(=O)OC[C@@H]2CO[C@@](CCc3ccc(Cl)cc3)(Cn3ccnc3)O2)cc1` [(2R,4S)-2-[2-(4-chlorophenyl)ethyl]-2-[(1H-imidazol-1-yl)methyl]-4-[(p-toluenesulfonyloxy)meth-yl]-1,3-dioxolane], for which the IC50 stood at 6 ± 2 µM at HO-1 (rat spleen) and 3 ± 1 µM against HO-2 (rat brain).
In the case of `Cl.c1cn(CC2OCCO2)cn1` [1-((1,3-Dioxolan-2-yl)methyl)-1H-imidazole hydrochloride], the “IC50 HO-1 (rat spleen)/μM” value against HO-1 (rat spleen) (rat spleen microsomes, average ± standard deviation of replicate experiments) is given as “Inactive”. In addition, the “IC50 HO-2 (rat brain)/μM” value at HO-2 (rat brain) (setting [3]) is on record as “Inactive”.
`COc1ccc(OCC2CO[C@](CCc3ccc(Cl)cc3)(Cn3ccnc3)O2)cc1` (stereo in doubt) [(2S,4S)-2-[2-(4-chlorophenyl)ethyl]-2-[(1H-imidazol-1-yl)methyl]-4-[(4-methoxyphenyloxy)meth-yl]-1,3-dioxolane hydrochloride]: the values for the IC50 at HO-1 (rat spleen) (setting [1]) and on HO-2 (rat brain) (setting [2]) were 28 ± 15 µM and 29 ± 6 µM, respectively.
As to `CC(O)C(Cc1ccc(Cl)cc1)n1ccnc1` (racemic) [(±)-4-(4-chlorophenyl)-3-imidazol-1-yl-butan-2-ol hydrochloride], the IC50 at HO-1 (rat spleen) is 40 ± 2 µM; on HO-2 (rat brain) it was > 100 µM.
Consider `O=C(Cn1cncn1)c1ccc(Br)cc1` [1-(4-Bromo-phenyl)-2-[1,2,4]triazol-1-yl-ethanone], for which the IC50 at HO-1 (rat spleen) (setting [1]) came to 2.7 ± 0.5 µM; on HO-2 (rat brain) (setting [2]) it was 50 ± 24 µM.
For `OC(CCc1ccccc1)Cn1ncnn1` (racemic) [(±)-4-phenyl-1-tetrazol-2-yl-butan-2-ol hydrochloride], the IC50 against HO-1 (rat spleen) and against HO-2 (rat brain) was > 100 µM in each case.
In the case of `FC(F)(F)c1ccc(CCCCn2ccnc2)cc1` [1-[4-(4-(Trifluoromethyl)phenyl)butyl]-1H-imidazole hydrochloride], the IC50 was 0.38 ± 0.09 µM on HO-1 (rat spleen) (setting [1]) and > 100 µM on HO-2 (rat brain) (setting [2]).
For `O=C(CCc1ccccc1)Cn1nc2ccccc2n1` [1-Benzotriazol-2-yl-4-phenyl-butan-2-one] the same measures were > 100 µM and > 100 µM.
With `CC(=O)C(Cc1ccccc1)n1cncn1` (racemic) [(±)-4-phenyl-3-[1,2,4]triazol-1-yl-butan-2-one], the IC50 on HO-1 (rat spleen) (setting [1]) is > 100 µM. The “IC50 HO-2 (rat brain)/μM” value against HO-2 (rat brain) (setting [3]) is reported as “INACTIVE”.
Take `c1ccc(SCCCn2ccnc2)cc1` [1-(3-phenylsulfanyl-propyl)-1H-imidazole hydrochloride]: the figures for the IC50 at HO-1 (rat spleen) (setting [1]) and at HO-2 (rat brain) (setting [2]) were 2.4 ± 0.2 µM and 16 ± 2 µM, respectively.
For `COc1ccc(SC[C@@H]2CO[C@@](CCc3ccc(Cl)cc3)(Cn3ccnc3)O2)cc1` [(2R,4S)-2-[2-(4-chlorophenyl)ethyl]-2-[(1H-imidazol-1-yl)methyl]-4-[{(4-methoxyphenyl)thio}methyl]-1,3-dioxolane hydrochloride] the same measures were 0.7 ± 0.3 µM and 2.5 ± 0.4 µM.
With `c1ccc(Cn2ccnc2)cc1` [1-Benzyl-1H-imidazole hydrochloride], the IC50 at HO-1 (rat spleen) is 44 ± 9 µM; against HO-2 (rat brain), > 100 µM.
For `OC(CCc1ccccc1)Cn1cnnn1` (racemic) [(±)-4-phenyl-1-tetrazol-1-yl-butan-2-ol hydrochloride], the IC50 on HO-1 (rat spleen) (setting [1]) was 56 ± 6 µM; at HO-2 (rat brain) (setting [2]), > 100 µM.
For `OC(CCc1ccccc1)Cn1cnc(-c2ccccc2)c1` (racemic) [(±)-4-phenyl-1-(4-phenyl-imidazol-1-yl)-butan-2-ol hydrochloride] the same measures were 15 ± 1 µM and > 100 µM.
The like results for `c1ccc2c(CCn3ccnc3)c[nH]c2c1` [3-[2-(1H-Imidazol-1-yl)-ethyl]-1H-indole hydrochloride] were, in that order, 40 ± 7 µM and > 100 µM.
Regarding `O=C(CCc1ccccc1)Cn1cnc(Br)c1` [1-(4-Bromo-imidazol-1-yl)-4-phenyl-butan-2-one], the IC50 at HO-1 (rat spleen) (setting [1]) and at HO-2 (rat brain) (setting [2]) was > 100 µM in each case.
Take `Fc1ccc(SC[C@@H]2CO[C@@](CCc3ccc(Cl)cc3)(Cn3ccnc3)O2)cc1` [(2R,4S)-2-[2-(4-chlorophenyl)ethyl]-2-[(1H-imidazol-1-yl)methyl]-4-[{(4-fluorophenyl)thio}meth-yl]-1,3-dioxolane hydrochloride]: the IC50 on HO-1 (rat spleen) (setting [1]) stood at 2.2 ± 0.2 µM; on HO-2 (rat brain) (setting [2]), 5 ± 4 µM.
For `c1cn(Cc2ccc(Cn3ccnc3)cc2)cn1` [1-(4-(1H-Imidazol-1-ylmethyl)benzyl)-1H-imidazole dihydrochloride] the same measures were 86 ± 30 µM and > 100 µM.
With `Clc1ccc(CC[C@@]2(Cn3ccnc3)OCC(COc3ccccc3)O2)cc1` (stereo in doubt) [(2R,4S)-1-{2-[2-(4-chloro-phenyl)-ethyl]-4-phenoxymethyl-[1,3]dioxolan-2-ylmethyl}-1H-imidazole hydrochloride], the IC50 on HO-1 (rat spleen) (setting [1]) was 0.59 ± 0.04 µM; at HO-2 (rat brain) (setting [2]), 1.6 ± 0.3 µM.
`c1ccc(CCC2(Cn3cnc(-c4ccccc4)c3)OCCO2)cc1` [1-(2-Phenethyl-[1,3]dioxolan-2-ylmethyl)-4-phenyl-1H-imidazole hydrochloride]: the IC50 on HO-1 (rat spleen) (setting [1]) and on HO-2 (rat brain) (setting [2]) was > 100 µM throughout.
As for `ClC[C@@H]1CO[C@@](CCc2ccc(Cl)cc2)(Cn2ccnc2)O1` [(2R,4S)-1-{4-chloromethyl-2-[2-(4-chloro-phenyl)-ethyl]-[1,3]dioxolan-2-ylmethyl}-1H-imidazole hydrochloride], the figures for the IC50 on HO-1 (rat spleen) (setting [1]) and on HO-2 (rat brain) (setting [2]) were 3.5 ± 0.1 µM and 122 ± 30 µM, respectively.
The like results for `O=C(CCc1ccccc1)Cn1nnc(-c2ccccc2)n1` [4-Phenyl-1-(5-phenyl-tetrazol-2-yl)-butan-2-one] were, in that order, > 100 µM and > 100 µM.
Take `Oc1ccc(OCC2CO[C@@](CCc3ccc(Cl)cc3)(Cn3ccnc3)O2)cc1` (stereo in doubt) [(2R,4S)-2-[2-(4-chlorophenyl)ethyl]-2-[(1H-imidazol-1-yl)methyl]-4-[(4-hydroxyphenyloxy)meth-yl]-1,3-dioxolane hydrochloride]: the IC50 on HO-1 (rat spleen) (setting [1]) stood at 1.8 ± 0.5 µM; on HO-2 (rat brain) (setting [2]), 7.1 ± 0.7 µM.
For `c1ccc(CCCCCn2ccnc2)cc1` [1-(5-phenyl-pentyl)-1H-imidazole hydrochloride] the same measures were 2.8 ± 0.5 µM and 20 ± 15 µM.
For `c1cn(CCCCc2ccc(CCCCn3ccnc3)cc2)cn1` [1,4-bis[(4-1H-imidazol-1-yl)butyl]benzene dihydrochloride] the same measures were 0.4 ± 0.1 µM and 8 ± 2 µM.
For `O=C(CCc1ccccc1)Cn1cnc(-c2ccccc2)c1-c1ccccc1` [1-(4,5-Diphenyl-imidazol-1-yl)-4-phenyl-butan-2-one hydrochloride] the same measures were 40 ± 2 µM and > 100 µM.
Consider `Clc1ccc(CC[C@@]2(Cn3ccnc3)OC[C@@H](CSc3ccncc3)O2)cc1` [(2R,4S)-2-[2-(4-chlorophenyl)ethyl]-2-[(1H-imidazol-1-yl)methyl]-4-[{(4-pyridinyl)thio}methyl]-1,3-dioxolane dihydrochloride], for which the IC50 at HO-1 (rat spleen) (setting [1]) is 25 ± 5 µM; at HO-2 (rat brain) (setting [2]), 69 ± 8 µM.
As for `O=C(Cn1ccnc1)c1ccc2c(c1)CCC2` [2-imidazol-1-yl-1-indan-5-yl-ethanone hydrochloride], the IC50 on HO-1 (rat spleen) (setting [1]) was determined as 4.6 ± 0.1 µM; at HO-2 (rat brain) (setting [2]) it was 37 ± 9 µM.
In the case of `Cc1nccn1CC(=O)CCc1ccccc1` [1-(2-methyl-imidazol-1-yl)-4-phenyl-butan-2-one hydrochloride], the IC50 on HO-1 (rat spleen) (setting [1]) and on HO-2 (rat brain) (setting [2]) was > 100 µM each time.
With `Clc1ccc(C2(Cn3cncn3)OCCO2)cc1` [1-[2-(4-chloro-phenyl)-[1,3]dioxolan-2-ylmethyl]-1H-[1,2,4]triazole], the results for the IC50 at HO-1 (rat spleen) (setting [1]) and at HO-2 (rat brain) (setting [2]) were 68.7 ± 0.6 µM and > 100 µM, respectively.
On to `Brc1ccc(CCC2(Cn3ccnc3)OCCO2)cc1` [2-[2-(4-bromophenyl)ethyl]-2-[(1H-imidazol-1-yl)methyl]-1,3-dioxolane hydrochloride], for which the IC50 at HO-1 (rat spleen) (setting [1]) was 1.9 ± 0.2 µM; at HO-2 (rat brain) (rat brain microsomes, average ± standard deviation of replicate experiments, hydrochloride, read-out: IC50 HO-2 (rat brain)/μM) it was > 100 µM.
For `c1ccc(CNCCCn2ccnc2)cc1`, the IC50 on HO-1 (rat spleen) (setting [1]) and on HO-2 (rat brain) (setting [2]) was > 100 µM in each case.
As to `c1cn(CC23CC4CC(CC(C4)C2)C3)cn1` [1-adamantan-1-ylmethyl-1H-imidazole hydrochloride], the IC50 on HO-1 (rat spleen) (setting [1]) is 2.2 ± 0.5 µM; at HO-2 (rat brain) (setting [2]), > 100 µM.
For `O=C(/C(=N/O)n1ccnc1)c1ccc(Cl)cc1` the same measures were 103 ± 2 µM and 103 ± 41 µM.

(Values after US20140155445A1, “Compounds and Methods for Treating Cancer and Diseases of the Central Nervous System” (Osta Biotechnologies Inc., priority 2007, published 2014).)
